From ChEMBL document CHEMBL3102830, “Involvement of apoptosis and autophagy in the death of RPMI 8226 multiple myeloma cells by two enantiomeric sigma receptor ligands” (Bioorg Med Chem, 2014)
Active and inactive are the calls of the source. No cut-off for these calls is given here.

Legend:
[1] = Displacement of [3H]-DTG from sigma-2 receptor in rat liver homogenates in presence of (+)-pentazocine; format: tissue-based
[2] = Binding affinity to sigma-2 receptor in human MCF7 cells; format: cell-based
[3] = tested on: RPMI-8226; experiment: Cytotoxicity against human RPMI8226 cells assessed as cell viability after 72 hrs by MTT assay; format: functional, cell-based; settings: for IC50: RPMI-8226, 72 h
[4] = target: Sigma non-opioid intracellular receptor 1 (Homo sapiens, UniProt Q99720); experiment: Displacement of [3H]-(+)-pentazocine from sigma-1 receptor in human RPMI8226 cells; format: cell-based, RPMI-8226
Sigma non-opioid intracellular receptor 1 (Homo sapiens, UniProt Q99720), sequence (Q99720 whole entry): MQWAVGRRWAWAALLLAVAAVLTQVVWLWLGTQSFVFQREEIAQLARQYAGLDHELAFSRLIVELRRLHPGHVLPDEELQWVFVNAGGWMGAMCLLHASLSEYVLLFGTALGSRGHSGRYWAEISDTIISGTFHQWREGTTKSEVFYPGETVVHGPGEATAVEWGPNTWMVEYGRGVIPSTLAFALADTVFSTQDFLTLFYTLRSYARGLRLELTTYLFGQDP

[5] = tested on: RPMI-8226; experiment: Induction of autophagy in human RPMI8226 cells assessed as […] protein expression at 23 uM after 48 hrs by Western blotting analysis in presence of 3-methyladenine; format: functional, cell-based
[6] = tested on: RPMI-8226; experiment: Induction of autophagy in human RPMI8226 cells assessed as […] protein expression at 23 uM after 48 hrs by Western blotting analysis in presence of wortmannin; format: functional, cell-based
[7] = tested on: RPMI-8226; experiment: Induction of apoptosis in human RPMI8226 cells assessed as decrease in mitochondrial membrane potential at 23 uM by JC-1 staining-based flow cytometric analysis; format: functional, cell-based; settings: TDE = time-dependent effect
[8] = tested on: RPMI-8226; experiment: Induction of apoptosis in human RPMI8226 cells at 23 uM after 6 hrs by annexin V-FITC/propidium iodide staining-based flow cytometric analysis; format: functional, cell-based
[9] = tested on: RPMI-8226; experiment: Induction of apoptosis in human RPMI8226 cells assessed as caspase-9 activation at 23 uM by flow cytometric analysis in presence of […]; format: functional, cell-based; settings: TDE = time-dependent effect
[10] = tested on: RPMI-8226; experiment: Induction of lipid peroxidation in human RPMI8226 cells at 23 uM after 5 to 24 hrs by flow cytometric analysis; format: functional, cell-based
[11] = tested on: RPMI-8226; experiment: Induction of apoptosis in human RPMI8226 cells assessed as early apoptotic cells at 23 uM after 48 hrs by annexin V-FITC/propidium iodide staining-based flow cytometric analysis; format: functional, cell-based
[12] = Displacement of [3H]-DTG from sigma-2 receptor in human RT4 cell homogenates in presence of (+)-pentazocine; format: tissue-based; settings: rt-4
[13] = tested on: RPMI-8226; experiment: Induction of apoptosis in human RPMI8226 cells assessed as chromatin condensation at 23 uM after 24 to 48 hrs by DAPI staining-based fluorescence microscopic analysis; format: functional, cell-based
[14] = tested on: RPMI-8226; experiment: Induction of autophagy in human RPMI8226 cells assessed as p62 protein expression at 23 uM after 6 to 96 hrs by Western blotting analysis; format: functional, cell-based
[15] = tested on: RPMI-8226; experiment: Induction of apoptosis in human RPMI8226 cells assessed as early apoptotic cells at 23 uM after 24 to 48 hrs by annexin V/propidium iodide staining-based flow cytometric analysis in presence of alpha-tocopherol; format: functional, cell-based
[16] = tested on: RPMI-8226; experiment: Induction of autophagy in human RPMI8226 cells assessed as p62 protein expression at 23 uM after 48 hrs by Western blotting analysis in presence of wortmannin; format: functional, cell-based
[17] = tested on: RPMI-8226; experiment: Induction of autophagy in human RPMI8226 cells assessed as p62 protein level at 23 uM after 6 to 96 hrs by Western blotting analysis in presence of alpha-tocopherol; format: functional, cell-based
[18] = target: Sigma non-opioid intracellular receptor 1 (Cavia porcellus, UniProt Q60492); experiment: Displacement of [3H]-(+)-pentazocine from sigma-1 receptor in guinea pig brain homogenates; format: tissue-based
Sigma non-opioid intracellular receptor 1 (Cavia porcellus, UniProt Q60492), sequence (Q60492 whole entry): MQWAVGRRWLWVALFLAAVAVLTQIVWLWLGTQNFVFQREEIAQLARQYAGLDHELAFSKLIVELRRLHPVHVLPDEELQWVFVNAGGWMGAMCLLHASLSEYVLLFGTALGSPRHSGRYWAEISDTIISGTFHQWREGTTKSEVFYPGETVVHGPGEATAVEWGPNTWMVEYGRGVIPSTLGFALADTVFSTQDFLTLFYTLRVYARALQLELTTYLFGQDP

[19] = tested on: RPMI-8226; experiment: Induction of autophagy in human RPMI8226 cells assessed as p62 protein expression at 23 uM after 48 hrs by Western blotting analysis in presence of 3-methyladenine; format: functional, cell-based
[20] = tested on: RPMI-8226; experiment: Induction of apoptosis in human RPMI8226 cells assessed as caspase-8 activation at 23 uM by flow cytometric analysis in presence of FITC-IETD-FMK; format: functional, cell-based; settings: TDE = time-dependent effect
[21] = tested on: RPMI-8226; experiment: Induction of apoptosis in human RPMI8226 cells assessed as early apoptotic cells at 23 uM after 48 hrs by annexin V-FITC/propidium iodide staining-based flow cytometric analysis in presence of wortmannin; format: functional, cell-based
[22] = Selectivity ratio of Ki for sigma-2 receptor in rat liver homogenates to Ki for sigma-1 receptor in guinea pig brain homogenates; format: tissue-based
[23] = tested on: RPMI-8226; experiment: Induction of apoptosis in human RPMI8226 cells assessed as increase in apoptotic cells at 23 uM after 24 to 48 hrs by annexin V-FITC/propidium iodide staining-based flow cytometric analysis; format: functional, cell-based
[24] = tested on: HL-60; experiment: Cytotoxicity against human HL60 cells assessed as cell viability at 20 uM after 72 hrs by MTT assay; format: functional, cell-based
[25] = tested on: RPMI-8226; experiment: Induction of lipid peroxidation in human RPMI8226 cells at 23 uM after 5 to 24 hrs by flow cytometric analysis in presence of alpha-tocopherol; format: functional, cell-based
[26] = tested on: RPMI-8226; experiment: Induction of apoptosis in human RPMI8226 cells assessed as caspase-3 activation at 23 uM by flow cytometric analysis in presence of […]; format: functional, cell-based; settings: TDE = time-dependent effect
[27] = tested on: RPMI-8226; experiment: Induction of autophagy in human RPMI8226 cells assessed as […] protein level at 23 uM after 6 to 96 hrs by Western blotting analysis in presence of alpha-tocopherol; format: functional, cell-based
[28] = tested on: RPMI-8226; experiment: Induction of reactive oxygen species generation in human RPMI8226 cells at 23 uM after 0.5 to 24 hrs by DCFDA dye-based flow cytometric analysis; format: functional, cell-based
[29] = tested on: RPMI-8226; experiment: Induction of autophagy in human RPMI8226 cells assessed as […] at 23 uM by Western blotting analysis; format: functional, cell-based; settings: TDE = time-dependent effect
[30] = tested on: RPMI-8226; experiment: Induction of apoptosis in human RPMI8226 cells assessed as early/late apoptotic cells at 23 uM after 48 hrs by annexin V/propidium iodide staining-based flow cytometric analysis in presence of alpha-tocopherol; format: functional, cell-based
[31] = tested on: RPMI-8226; experiment: Selectivity ratio of Ki for sigma-2 receptor in human RT4 cell homogenates to Ki for sigma-1 receptor in human RPMI8226 cells; format: cell-based
[32] = tested on: RPMI-8226; experiment: Induction of apoptosis in human RPMI8226 cells assessed as early apoptotic cells at 36 uM after 24 hrs by annexin V/propidium iodide staining-based flow cytometric analysis in presence of alpha-tocopherol; format: functional, cell-based
[33] = tested on: RPMI-8226; experiment: Induction of apoptosis in human RPMI8226 cells assessed as caspase-9 protein expression at 36 uM after 6 to 96 hrs by Western blotting analysis; format: functional, cell-based
[34] = tested on: RPMI-8226; experiment: Induction of apoptosis in human RPMI8226 cells assessed as decrease in Bid protein expression at 36 uM up to 96 hrs by Western blotting analysis; format: functional, cell-based
[35] = tested on: RPMI-8226; experiment: Induction of autophagy in human RPMI8226 cells assessed as […] at 36 uM by Western blotting analysis; format: functional, cell-based; settings: TDE = time-dependent effect
[36] = tested on: RPMI-8226; experiment: Induction of apoptosis in human RPMI8226 cells assessed as chromatin condensation at 36 uM after 24 to 48 hrs by DAPI staining-based fluorescence microscopic analysis; format: functional, cell-based
[37] = tested on: RPMI-8226; experiment: Induction of apoptosis in human RPMI8226 cells assessed as caspase-8 activation at 36 uM by flow cytometric analysis in presence of FITC-IETD-FMK; format: functional, cell-based; settings: TDE = time-dependent effect
[38] = tested on: RPMI-8226; experiment: Induction of autophagy in human RPMI8226 cells assessed as p62 protein expression at 36 uM after 6 to 96 hrs by Western blotting analysis; format: functional, cell-based
[39] = tested on: RPMI-8226; experiment: Induction of apoptosis in human RPMI8226 cells assessed as caspase-3 activation at 36 uM by flow cytometric analysis in presence of […]; format: functional, cell-based; settings: TDE = time-dependent effect
[40] = tested on: RPMI-8226; experiment: Induction of apoptosis in human RPMI8226 cells assessed as increase in apoptotic cells at 36 uM after 24 to 48 hrs by annexin V-FITC/propidium iodide staining-based flow cytometric analysis; format: functional, cell-based
[41] = tested on: RPMI-8226; experiment: Induction of apoptosis in human RPMI8226 cells assessed as early apoptotic cells at 36 uM after 48 hrs by annexin V-FITC/propidium iodide staining-based flow cytometric analysis in presence of wortmannin; format: functional, cell-based
[42] = tested on: RPMI-8226; experiment: Induction of apoptosis in human RPMI8226 cells assessed as early/late apoptotic cells at 36 uM after 48 hrs by annexin V/propidium iodide staining-based flow cytometric analysis in presence of alpha-tocopherol; format: functional, cell-based
[43] = tested on: RPMI-8226; experiment: Induction of apoptosis in human RPMI8226 cells at 36 uM after 6 hrs by annexin V-FITC/propidium iodide staining-based flow cytometric analysis; format: functional, cell-based
[44] = tested on: RPMI-8226; experiment: Induction of apoptosis in human RPMI8226 cells assessed as decrease in Bax protein expression at 36 uM by Western blotting analysis; format: functional, cell-based; settings: TDE = time-dependent effect
[45] = tested on: RPMI-8226; experiment: Induction of apoptosis in human RPMI8226 cells assessed as early apoptotic cells at 36 uM after 48 hrs by annexin V-FITC/propidium iodide staining-based flow cytometric analysis; format: functional, cell-based
[46] = tested on: RPMI-8226; experiment: Induction of apoptosis in human RPMI8226 cells assessed as dead cells at 36 uM after 48 hrs by annexin V-FITC/propidium iodide staining-based flow cytometric analysis relative to control; format: functional
[47] = tested on: RPMI-8226; experiment: Induction of apoptosis in human RPMI8226 cells assessed as caspase-8 cleavage at 36 uM after 6 to 96 hrs by Western blotting analysis; format: functional, cell-based
[48] = tested on: RPMI-8226; experiment: Induction of apoptosis in human RPMI8226 cells at 36 uM after 48 hrs by annexin V-FITC/propidium iodide staining-based flow cytometric analysis in presence of caspase inhibitor z-VAD-FMK; format: functional, cell-based
[49] = tested on: RPMI-8226; experiment: Induction of apoptosis in human RPMI8226 cells assessed as dead cells at 36 uM after 48 hrs by annexin V-FITC/propidium iodide staining-based flow cytometric analysis in presence of apoptosis inhibitor 2,2'-methylenebis(1,3-cyclohexandione) relative to control; format: functional
[50] = tested on: RPMI-8226; experiment: Induction of apoptosis in human RPMI8226 cells assessed as increase in Bcl2 protein expression at 36 uM by Western blotting analysis; format: functional, cell-based; settings: TDE = time-dependent effect
[51] = tested on: RPMI-8226; experiment: Induction of apoptosis in human RPMI8226 cells assessed as PARP-1 cleavage at 36 uM after 6 hrs by Western blotting analysis; format: functional, cell-based
[52] = tested on: RPMI-8226; experiment: Induction of apoptosis in human RPMI8226 cells assessed as caspase-9 activation at 36 uM by flow cytometric analysis in presence of […]; format: functional, cell-based; settings: TDE = time-dependent effect
[53] = tested on: RPMI-8226; experiment: Induction of apoptosis in human RPMI8226 cells assessed as early apoptotic cells at 36 uM after 24 hrs by annexin V/propidium iodide staining-based flow cytometric analysis; format: functional, cell-based
[54] = tested on: RPMI-8226; experiment: Induction of apoptosis in human RPMI8226 cells assessed as early apoptotic cells at 36 uM after 48 hrs by annexin V/propidium iodide staining-based flow cytometric analysis; format: functional, cell-based
[55] = Binding affinity to sigma-2 receptor in rat liver homogenates; format: tissue-based

COc1ccc(CN2CCN(Cc3ccccc3)CC2)cc1
Ki [1]: 161 nM

COc1cccc2c1CCCC2CCCN1CCN(C2CCCCC2)CC1 (stereo not drawn)
Ki [2]: 0.28 nM
IC50 [3]: 9290 nM

OCC[C@@H]1CN(CC2CCCCC2)CCN1Cc1ccc(-c2ccccc2)cc1
Ki [4]: 29 nM
Activity [5]: Active
Activity [6]: Active
Activity [7]: tde
Activity [8]: inactive
Activity [9]: tde
Activity [10]: Active
Activity [11]: Active
Ki [12]: 39 nM
Activity [13]: Active
Activity [14]: inactive
Activity [15]: inactive
Activity [16]: inactive
Activity [17]: inactive
Ki [18]: 7.8 nM
Activity [19]: inactive
Activity [20]: tde
Activity [21]: Active
Ratio Ki [22]: 4.5
Ki [1]: 38 nM
Activity [23]: Active
Activity [24]: inactive
Activity [25]: inactive
Activity [26]: tde
Activity [27]: inactive
Activity [28]: inactive
Activity [29]: tde
Activity [3]: Dose-dependent effect
IC50 [3]: 13000 nM
Activity [30]: inactive
Ratio Ki [31]: 1.3

OCC[C@H]1CN(CC2CCCCC2)CCN1Cc1ccc(-c2ccccc2)cc1
Ki [4]: 34 nM
Activity [32]: Active
Activity [33]: inactive
Activity [34]: inactive
Activity [35]: tde
Activity [36]: Active
Activity [37]: tde
Activity [38]: inactive
Activity [39]: tde
Activity [40]: Active
Activity [41]: Active
Activity [42]: inactive
Ki [12]: 43 nM
Activity [43]: inactive
Ki [18]: 3.5 nM
Activity [44]: tde
Ratio Ki [22]: 20.8
Ki [1]: 73 nM
Activity [45]: Active
Activity [46]: 18%
Activity [47]: Active
Activity [24]: inactive
Activity [48]: Active
Activity [49]: 21%
Activity [50]: tde
Activity [51]: Active
Activity [52]: tde
Activity [53]: Active
Activity [3]: Dose-dependent effect
IC50 [3]: 21300 nM
Ratio Ki [31]: 1.3
Activity [54]: inactive

COc1ccc(CN2CCN(Cc3ccccc3)[C@@H](CO)C2)cc1
Ratio Ki [22]: 5.8
Ki [55]: 70 nM
